Assay results published in US20100056482A1, “Calixarene Derivatives as Anticancer Agent” (CENTRE NATIONAL DE LA RECHERCHE SCIENTIFIQUE-CNRS, priority 2006, published 2010).

Tests used:
Type in all cases: cell-based
[1] = test system: keratinocytes, non tumoral cells; experiment: MTS cell viability, keratinocytes (Example 2); settings: Keratinocyte, Keratonicytes, MTS on 3rd day
Experimental: (§1) The cells (0.2×10^6/ml) were incubated in a sterile fashion in 100 μl of culture medium (RPMI-1640 supplemented with 10% foetal calf serum, penicillin, streptomycin and amphotericin B) at day DO with variable quantities (from […]) of C4diP, tBuC4diP or C8C4diP at 37° C. and 5% CO2 in a water-saturated atmosphere. On the 3rd day, 20 μl of MTS (non radioactive cell proliferation test (Promega Cat. #: G 3580) are added to the previous 100 μl and then a spectrophotometric reading is carried out at 490 nm after 2 hours of incubation against reagent blanks.
(§2) The cell lines used are as follows: • keratinocytes • WBC: leucocytes • MEWO: human skin melanoma • jurkat: T-cell acute lymphoblastic leukaemia. Cells of the T-lymphocyte type. • HL-60: promyelocytary acute leukaemia. Cells of the promyeloblast type. • Huh7: human hepatoma • Hep-G2: hepatocellular carcinoma.
(§3) The anticancerous effect of C4diP, tBuC4diP and C8C4diP is evaluated by measuring cell viability as a function of variable quantities of these compounds.
(§4) In order to determine the anticancer effect of C4diP, tBuC4diP and C8C4diP on a particular tumour cell culture, the IC50 was calculated.

[2] = test system: Huh7 human hepatoma cells; experiment: MTS cell viability, Huh7 (Example 2); settings: Huh 7, MTS on 3rd day
Experimental: as §1, §2, §3, §4

[3] = test system: jurkat T-cell acute lymphoblastic leukaemia cells; experiment: MTS cell viability, Jurkat (Example 2); settings: Homo sapiens, MTS on 3rd day
Experimental: as §1, §2, §3, §4

[4] = test system: WBC (leucocytes), non tumoral cells; experiment: MTS cell viability, WBC (Example 2); settings: Leucocyte, MTS on 3rd day
Experimental: as §1, §2, §3, §4

[5] = test system: MEWO human skin melanoma cells; experiment: MTS cell viability, Mewo (Example 2); settings: MTS on 3rd day
Experimental: as §1, §2, §3, §4

[6] = test system: HL-60 promyelocytary acute leukaemia cells; experiment: MTS cell viability, HL-60 (Example 2); settings: Homo sapiens; HL-60, MTS on 3rd day
Experimental: as §1, §2, §3, §4

[7] = test system: Hep-G2 hepatocellular carcinoma cells; experiment: MTS cell viability, HepG2 (Example 2); settings: Homo sapiens; HepG2, MTS on 3rd day
Experimental: as §1, §2, §3, §4

[8] = test system: human PBMC (peripheral blood mononuclear cells); experiment: MTS cell viability, human PBMC primary culture (Example 3); settings: primary culture of human PBMC (WBC, healthy lymphocytes), read-out: IC50 (mean concentration for 50% mortality)
Experimental: as §1, with “C4diP” for “C4diP, tBuC4diP or C8C4diP”, “At” for “On”, “4th” for “3rd”, “(non-radioactive” for “(non radioactive”, “is” for “are”
In order to determine the anticancer effect of C4diP on a particular culture of tumour cells, the IC50 was calculated.
The protocol used is that described previously in example 1. When vinblastin is used in the culture medium, it replaces C4diP.

With `CCCCCCCC(=O)/C(C)=C/C(Cc1cc(C(=O)CCCCCCC)cc(Cc2cc(C(=O)CCCCCCC)cc(Cc3cc(C(=O)CCCCCCC)cc(CC)c3OP(=O)(O)O)c2O)c1OP(=O)(O)O)=C(\C)O` [C8C4diP, para-octanoyl-calyx[4]arene dihydroxyphosphonic acid] the IC50 [1] was 46 µM, the IC50 [2] was 270 µM and the IC50 [3] was 113 µM. The IC50 [4] was 95 µM, the IC50 [5] was 1000 µM and the IC50 [6] was 1000 µM. For the same compound, the IC50 [7] was 1000 µM.

`CC[C@]1(O)C[C@@H]2CN(CCc3c([nH]c4ccccc34)[C@@](C(=O)OC)(c3cc4c(cc3OC)N(C)[C@H]3[C@@](O)(C(=O)OC)[C@H](OC(C)=O)[C@]5(CC)C=CCN6CC[C@]43[C@@H]65)C2)C1` [vinblastin, reference compound] gave an IC50 [8] of 0.005 µM.
